# According to ChEMBL document CHEMBL1201862, “PubChem BioAssay data set” (2004):
#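 Values below derive from 48-hour exposures of cells grown in 96-well plates, with endpoints linearly interpolated between the two concentrations bracketing the appropriate inhibition level. GI50: concentration for 50% inhibition of growth.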 Calls of active or inactive are those of the source. Cut-off read from the data, not from the text of the source: active = GI50 up to about 1.1 µM and inactive = higher. Where a SMILES comes first, the peptide text is derived from it. The star is where a group is joined. Boc = CC(C)(C)OC(=O)*
# Experiments:
# Experiment in all cases: NCI tumour cell line growth inhibition, 48 h
# SK-MEL-5 = tested on: SK-MEL-5
# 786-0 = tested on: 786-0
# LOX IMVI = tested on: LOX IMVI
# SK-MEL-2 = tested on: SK-MEL-2
# U-251 = tested on: U-251
# OVCAR-5 = tested on: OVCAR-5
# CAKI-1 = tested on: CAKI-1
# MCF7 = tested on: MCF7
# SR = tested on: SR
# MDA-N = tested on: MDA-N
# M14 = tested on: M14
# IGROV-1 = tested on: IGROV-1
# NCI-H522 = tested on: NCI-H522
# HCC 2998 = tested on: HCC 2998
# UACC-257 = tested on: UACC-257
# NCI-H460 = tested on: NCI-H460
# MDA-MB-435 = tested on: MDA-MB-435
# NCI-H226 = tested on: NCI-H226
# SF-295 = tested on: SF-295
# SN12C = tested on: SN12C
# OVCAR-3 = tested on: OVCAR-3
# DU-145 = tested on: DU-145
# MDA-MB-231 = tested on: MDA-MB-231
# SW-620 = tested on: SW-620
# UO-31 = tested on: UO-31
# KM12 = tested on: KM12
# PC-3 = tested on: PC-3
# HCT-15 = tested on: HCT-15
# T47D = tested on: T47D
# HCT-116 = tested on: HCT-116
# RXF 393 = tested on: RXF 393
# EKVX = tested on: EKVX
# Malme-3M = tested on: Malme-3M
# TK-10 = tested on: TK-10
# Hs-578T = tested on: Hs-578T
# HOP-62 = tested on: HOP-62
# HT-29 = tested on: HT-29
# A549 = tested on: A549
# NCI-H23 = tested on: NCI-H23
# BT-549 = tested on: BT-549
# UACC-62 = tested on: UACC-62
# RPMI-8226 = tested on: RPMI-8226
# OVCAR-8 = tested on: OVCAR-8
# NCI/ADR-RES = tested on: NCI/ADR-RES
# MOLT-4 = tested on: MOLT-4
# SK-OV-3 = tested on: SK-OV-3
# CCRF-CEM = tested on: CCRF-CEM
# K562 = tested on: K562
# SNB-75 = tested on: SNB-75
# ACHN = tested on: ACHN
# HOP-92 = tested on: HOP-92
# SF-268 = tested on: SF-268
# COLO 205 = tested on: COLO 205
# SK-MEL-28 = tested on: SK-MEL-28
# OVCAR-4 = tested on: OVCAR-4
# SNB-19 = tested on: SNB-19
# SF-539 = tested on: SF-539
# HL-60 = tested on: HL-60
# A498 = tested on: A498
smiles,measurement,setting,value
CC(=O)OCc1ccc2oc(=O)c(C(=O)Oc3cccc(Cl)c3)cc2c1,GI50,SK-MEL-5,> 100 µM (inactive)
same,GI50,786-0,36.1 µM (inactive)
same,GI50,LOX IMVI,> 100 µM (inactive)
same,GI50,SK-MEL-2,82.4 µM (inactive)
same,GI50,U-251,> 100 µM (inactive)
same,GI50,OVCAR-5,> 100 µM (inactive)
same,GI50,CAKI-1,42.9 µM (inactive)
same,GI50,MCF7,26.2 µM (inactive)
same,GI50,SR,44.8 µM (inactive)
same,GI50,MDA-N,> 100 µM (inactive)
same,GI50,M14,34.6 µM (inactive)
same,GI50,IGROV-1,63.5 µM (inactive)
same,GI50,NCI-H522,> 100 µM (inactive)
same,GI50,HCC 2998,19.4 µM (inactive)
same,GI50,UACC-257,62.7 µM (inactive)
same,GI50,NCI-H460,37.9 µM (inactive)
same,GI50,MDA-MB-435,64.4 µM (inactive)
same,GI50,NCI-H226,> 100 µM (inactive)
same,GI50,SF-295,> 100 µM (inactive)
same,GI50,SN12C,54.5 µM (inactive)
same,GI50,OVCAR-3,> 100 µM (inactive)
same,GI50,DU-145,> 100 µM (inactive)
same,GI50,MDA-MB-231,32.4 µM (inactive)
same,GI50,SW-620,56.4 µM (inactive)
same,GI50,UO-31,22.1 µM (inactive)
same,GI50,KM12,61.5 µM (inactive)
same,GI50,PC-3,19.1 µM (inactive)
same,GI50,HCT-15,35.5 µM
same,GI50,T47D,20.6 µM (inactive)
same,GI50,HCT-116,21.2 µM (inactive)
same,GI50,RXF 393,33.7 µM (inactive)
same,GI50,EKVX,> 100 µM (inactive)
same,GI50,Malme-3M,> 100 µM (inactive)
same,GI50,TK-10,31.5 µM (inactive)
same,GI50,Hs-578T,> 100 µM (inactive)
same,GI50,HOP-62,99.1 µM (inactive)
same,GI50,HT-29,27.5 µM (inactive)
same,GI50,A549,> 100 µM (inactive)
same,GI50,NCI-H23,74.6 µM (inactive)
same,GI50,BT-549,> 100 µM (inactive)
same,GI50,UACC-62,17.4 µM (inactive)
same,GI50,RPMI-8226,> 100 µM (inactive)
same,GI50,OVCAR-8,> 100 µM (inactive)
same,GI50,NCI/ADR-RES,> 100 µM (inactive)
same,GI50,MOLT-4,90.2 µM (inactive)
same,GI50,SK-OV-3,> 100 µM (inactive)
same,GI50,CCRF-CEM,> 100 µM (inactive)
same,GI50,K562,23.9 µM (inactive)
same,GI50,SNB-75,37.8 µM (inactive)
same,GI50,ACHN,38.2 µM (inactive)
same,GI50,HOP-92,20.6 µM (inactive)
same,GI50,SF-268,> 100 µM (inactive)
same,GI50,COLO 205,30.3 µM (inactive)
same,GI50,SK-MEL-28,83 µM (inactive)
same,GI50,OVCAR-4,> 100 µM (inactive)
same,GI50,SNB-19,83 µM (inactive)
same,GI50,SF-539,46.2 µM (inactive)
COC(=O)C(C)NC(=O)C(CCSC)NC(=O)C(Cc1ccccc1)NC(=O)OC(C)(C)C (stereo not drawn) (Boc-Phe-Met-Ala-OMe; configuration not given here),GI50,SK-MEL-5,> 100 µM (inactive)
same,GI50,786-0,> 100 µM (inactive)
same,GI50,LOX IMVI,> 100 µM (inactive)
same,GI50,SK-MEL-2,> 100 µM (inactive)
same,GI50,U-251,> 100 µM (inactive)
same,GI50,OVCAR-5,> 100 µM (inactive)
same,GI50,CAKI-1,> 100 µM (inactive)
same,GI50,MCF7,> 100 µM (inactive)
same,GI50,SR,> 100 µM (inactive)
same,GI50,MDA-N,> 100 µM (inactive)
same,GI50,M14,> 100 µM (inactive)
same,GI50,IGROV-1,> 100 µM (inactive)
same,GI50,NCI-H522,> 100 µM (inactive)
same,GI50,HCC 2998,> 100 µM (inactive)
same,GI50,UACC-257,> 100 µM (inactive)
same,GI50,NCI-H460,> 100 µM (inactive)
same,GI50,MDA-MB-435,> 100 µM (inactive)
same,GI50,NCI-H226,> 100 µM (inactive)
same,GI50,SF-295,> 100 µM (inactive)
same,GI50,SN12C,> 100 µM (inactive)
same,GI50,OVCAR-3,> 100 µM (inactive)
same,GI50,DU-145,> 100 µM (inactive)
same,GI50,MDA-MB-231,> 100 µM (inactive)
same,GI50,SW-620,> 100 µM (inactive)
same,GI50,UO-31,> 100 µM (inactive)
same,GI50,KM12,> 100 µM (inactive)
same,GI50,PC-3,> 100 µM (inactive)
same,GI50,HCT-15,> 100 µM
same,GI50,T47D,> 100 µM (inactive)
same,GI50,HCT-116,> 100 µM (inactive)
same,GI50,Malme-3M,> 100 µM (inactive)
same,GI50,TK-10,> 100 µM (inactive)
same,GI50,Hs-578T,> 100 µM (inactive)
same,GI50,HOP-62,> 100 µM (inactive)
same,GI50,HT-29,> 100 µM (inactive)
same,GI50,A549,> 100 µM (inactive)
same,GI50,NCI-H23,> 100 µM (inactive)
same,GI50,BT-549,> 100 µM (inactive)
same,GI50,UACC-62,> 100 µM (inactive)
same,GI50,RPMI-8226,> 100 µM (inactive)
same,GI50,OVCAR-8,> 100 µM (inactive)
same,GI50,HL-60,63.2 µM (inactive)
same,GI50,NCI/ADR-RES,> 100 µM (inactive)
same,GI50,MOLT-4,> 100 µM (inactive)
same,GI50,SK-OV-3,> 100 µM (inactive)
same,GI50,CCRF-CEM,> 100 µM (inactive)
same,GI50,SNB-75,> 100 µM (inactive)
same,GI50,ACHN,> 100 µM (inactive)
same,GI50,HOP-92,> 100 µM (inactive)
same,GI50,SF-268,> 100 µM (inactive)
same,GI50,COLO 205,> 100 µM (inactive)
same,GI50,SK-MEL-28,> 100 µM (inactive)
same,GI50,OVCAR-4,> 100 µM (inactive)
same,GI50,SNB-19,> 100 µM (inactive)
same,GI50,SF-539,> 100 µM (inactive)
CC(C)CCC1(CCN)C(=O)NC(=O)NC1=O,GI50,SK-MEL-5,> 100 µM (inactive)
same,GI50,A498,> 100 µM (inactive)
same,GI50,786-0,> 100 µM (inactive)
same,GI50,LOX IMVI,> 100 µM (inactive)
same,GI50,SK-MEL-2,> 100 µM (inactive)
same,GI50,U-251,> 100 µM (inactive)
same,GI50,OVCAR-5,> 100 µM (inactive)
same,GI50,CAKI-1,> 100 µM (inactive)
same,GI50,MCF7,> 100 µM (inactive)
same,GI50,SR,6.68 µM (inactive)
same,GI50,MDA-N,> 100 µM (inactive)
same,GI50,M14,> 100 µM (inactive)
same,GI50,IGROV-1,> 100 µM (inactive)
same,GI50,NCI-H522,> 100 µM (inactive)
same,GI50,UACC-257,> 100 µM (inactive)
same,GI50,NCI-H460,> 100 µM (inactive)
same,GI50,MDA-MB-435,> 100 µM (inactive)
same,GI50,NCI-H226,> 100 µM (inactive)
same,GI50,SF-295,> 100 µM (inactive)
same,GI50,SN12C,> 100 µM (inactive)
same,GI50,OVCAR-3,> 100 µM (inactive)
same,GI50,DU-145,> 100 µM (inactive)
same,GI50,MDA-MB-231,> 100 µM (inactive)
same,GI50,SW-620,> 100 µM (inactive)
same,GI50,UO-31,> 100 µM (inactive)
same,GI50,KM12,> 100 µM (inactive)
same,GI50,PC-3,> 100 µM (inactive)
same,GI50,HCT-15,> 100 µM
same,GI50,T47D,> 100 µM (inactive)
same,GI50,HCT-116,> 100 µM (inactive)
same,GI50,RXF 393,> 100 µM (inactive)
same,GI50,EKVX,> 100 µM (inactive)
same,GI50,Malme-3M,> 100 µM (inactive)
same,GI50,TK-10,> 100 µM (inactive)
same,GI50,Hs-578T,> 100 µM (inactive)
same,GI50,HOP-62,> 100 µM (inactive)
same,GI50,HT-29,> 100 µM (inactive)
same,GI50,A549,> 100 µM (inactive)
same,GI50,NCI-H23,> 100 µM (inactive)
same,GI50,BT-549,> 100 µM (inactive)
same,GI50,UACC-62,> 100 µM (inactive)
same,GI50,RPMI-8226,> 100 µM (inactive)
same,GI50,OVCAR-8,> 100 µM (inactive)
same,GI50,HL-60,38.2 µM (inactive)
same,GI50,NCI/ADR-RES,> 100 µM (inactive)
same,GI50,MOLT-4,16.2 µM (inactive)
same,GI50,SK-OV-3,> 100 µM (inactive)
same,GI50,CCRF-CEM,19.6 µM (inactive)
same,GI50,K562,16.3 µM (inactive)
same,GI50,SNB-75,> 100 µM (inactive)
same,GI50,ACHN,> 100 µM (inactive)
same,GI50,HOP-92,> 100 µM (inactive)
same,GI50,SF-268,> 100 µM (inactive)
same,GI50,COLO 205,> 100 µM (inactive)
same,GI50,SK-MEL-28,> 100 µM (inactive)
same,GI50,OVCAR-4,> 100 µM (inactive)
same,GI50,SNB-19,> 100 µM (inactive)
same,GI50,SF-539,> 100 µM (inactive)
